Experimental data: patent US20260125335A1, “SYNTHETIC C[…], PHARMACEUTICAL COMPOSITIONS, AND METHODS OF TREATING BACTERIAL INFECTIONS AND OTHER DISORDERS” (priority 2023, published 2026)
≈ marks a conversion by molar mass, not a printed value. Like-named read-outs stand apart in the source and are kept apart here.

Key:
Assay type in all cases: cell-based
Citrobacter freundii = experiment: Broth microdilution MIC assay, Citrobacter freundii; conditions: type —
Procedure: (§1) This example illustrates evaluating in vitro activity of (Z)-2-(3,6-dimethylhepta-2,5-dien-1-yl)-5-pentylbenzene-1,3-diol (Example 1, “M194”) against gram-positive and gram-negative bacteria. In this study, in vitro activity was determined against a diverse panel of Gram-positive and Gram-negative bacteria associated with a variety of infections. Broth microdilution MIC assays were conducted following guidelines recommended by the Clinical and Laboratory Standards Institute (CLSI; 1-3).
(§2) The compound M194 was provided in powder form and initially stored at room temperature prior to testing. A stock solution of M194 in DMSO/DMSO solvent/diluent was made at 101× the final testing concentration and tested over ranges of 0.06-64 μg/mL.
(§3) Test organisms consisted of isolates from the American Type Culture Collection (ATCC; Manassas, VA) and the Micromyx Repository (MMX; Kalamazoo, MI). Upon initial receipt at Microbiologics, the organisms were sub-cultured onto an appropriate agar medium and incubated under atmospheric conditions required for growth. Following incubation for 18 to 24 hr at 35° C. in the appropriate atmosphere, colonies were harvested from these plates and cell suspensions were prepared and frozen at −80° C. with a cryoprotectant. Prior to testing, isolates were streaked from frozen vials onto the appropriate agar. […]

[1] = tested on: Staphylococcus epidermidis; experiment: Broth microdilution MIC assay, Staphylococcus epidermidis
Procedure: as §1, §2, §3

Acinetobacter baumannii = experiment: Broth microdilution MIC assay, Acinetobacter baumannii
Procedure: as §1, §2
(§4) Test organisms consisted of isolates from the American Type Culture Collection (ATCC; Manassas, VA) and the Micromyx Repository (MMX; Kalamazoo, MI). Upon initial receipt at Microbiologics, the organisms were sub-cultured onto an appropriate agar medium and incubated under atmospheric conditions required for growth. Following incubation for 18 to 24 hr at 35° C. in the appropriate atmosphere, colonies were harvested from these plates and cell suspensions were prepared and frozen at −80° C. with a cryoprotectant. Prior to testing, isolates were streaked from frozen vials onto the appropriate agar. Unless otherwise noted, Trypticase Soy Agar with 5% sheep blood (Remel; Lenexa, KS; Lot No. 693244) was used and inoculated plates were incubated at 35° C. overnight in ambient atmosphere. Haemophilus influenzae isolates were streaked onto Chocolate agar (Becton Dickinson [BD]; Sparks, MD; Lot No. 3157581). Streptococcus spp., Moraxella spp., and H. influenzae inoculated plates were incubated at 35° C. overnight in 5% CO2.
(§5) Organisms were tested in the appropriate media according to CLSI guidelines (1-3). […]

Streptococcus mutans = experiment: Broth microdilution MIC assay, Streptococcus mutans; conditions: type —
Procedure: as §1, §2, §3

Serratia marcescens = experiment: Broth microdilution MIC assay, Serratia marcescens; conditions: type —
Procedure: as §1, §2, §3

Escherichia coli = experiment: Broth microdilution MIC assay, Escherichia coli
Procedure: as §1, §2, §4, §5

Haemophilus influenzae = experiment: Broth microdilution MIC assay, Haemophilus influenzae; conditions: for MIC: Haemophilus influenzae
Procedure: as §1, §2, §4, §5

Streptococcus oralis = experiment: Broth microdilution MIC assay, Streptococcus oralis; conditions: type ERYR
Procedure: as §1, §2, §3

Listeria monocytogenes = experiment: Broth microdilution MIC assay, Listeria monocytogenes; conditions: type —
Procedure: as §1, §2, §3

[2] = tested on: Staphylococcus spp. and Enterococcus spp.; experiment: Broth microdilution MIC assay, Staphylococcus spp. and Enterococcus spp.; conditions: all Staphylococcus spp.
Procedure: as §1, §2, §3

Pseudomonas aeruginosa = experiment: Broth microdilution MIC assay, Pseudomonas aeruginosa; conditions: for MIC: Pseudomonas aeruginosa
Procedure: as §1, §2, §4, §5

[3] = tested on: Streptococcus spp. and L. monocytogenes; experiment: Broth microdilution MIC assay, Streptococcus spp. and L. monocytogenes; conditions: all Streptococcus spp., compared with Staphylococcus spp. and Enterococcus spp.
Procedure: as §1, §2, §3

Streptococcus agalactiae = experiment: Broth microdilution MIC assay, Streptococcus agalactiae
Procedure: as §1, §2, §3

Proteus mirabilis = experiment: Broth microdilution MIC assay, Proteus mirabilis; conditions: type —
Procedure: as §1, §2, §3

[4] = tested on: Staphylococcus saprophyticus; experiment: Broth microdilution MIC assay, Staphylococcus saprophyticus; conditions: type MSS
Procedure: as §1, §2, §3

[5] = tested on: Streptococcus constellatus; experiment: Broth microdilution MIC assay, Streptococcus constellatus; conditions: type —
Procedure: as §1, §2, §3

Enterobacter cloacae = experiment: Broth microdilution MIC assay, Enterobacter cloacae; conditions: type —
Procedure: as §1, §2, §3

Enterobacterales = experiment: Broth microdilution MIC assay, Enterobacterales; conditions: any of the Enterobacterales
Procedure: as §1, §2, §3

Neisseria gonorrhoeae = experiment: Broth microdilution MIC assay, Neisseria gonorrhoeae
Procedure: as §1, §2, §3

Streptococcus pyogenes = experiment: Broth microdilution MIC assay, Streptococcus pyogenes
Procedure: as §1, §2, §3

Staphylococcus aureus = experiment: Broth microdilution MIC assay, Staphylococcus aureus
Procedure: as §1, §2, §4
(§6) Organisms were tested in the appropriate media according to CLSI guidelines (1-3). Cation-Adjusted Mueller Hinton broth (CAMHB) was made by supplementing Mueller Hinton Broth (MHB; BD; Lot No. 1285575) to a final concentration of 20 mg/L Ca++ (Sigma; St. Louis, MO; Lot. No. 084K0215) and 12.5 mg/L Mg++ (VWR; Radnor, PA; Lot. No. 22C0856290). CAMHB was used for broth microdilution testing except for isolates requiring specialized media as described below.
(§7) The MIC assay method followed the procedures described by CLSI and employed automated liquid handlers to conduct serial dilutions and liquid transfers. Automated liquid handlers included the Multidrop Combi (ThermoScientific), Biomek 3000, and Biomek FX (Beckman Coulter; Fullerton, CA).
(§8) The wells in columns 2 through 12 in standard 96-well microdilution plates (Costar 3795) were filled with 150 μl of the appropriate diluent. These would become the “mother plates” from which “daughter,” or test plates, would be prepared. […]

Moraxella catarrhalis = experiment: Broth microdilution MIC assay, Moraxella catarrhalis
Procedure: as §1, §2, §3

Klebsiella pneumoniae = experiment: Broth microdilution MIC assay, Klebsiella pneumoniae
Procedure: as §1, §2, §3

Enterococcus faecalis = experiment: Broth microdilution MIC assay, Enterococcus faecalis
Procedure: as §1, §2, §4, §6, §7, §8

Enterococcus faecium = experiment: Broth microdilution MIC assay, Enterococcus faecium
Procedure: as §1, §2, §3

Molecule `CCCCCc1cc(O)c(C/C=C(/C)CC=C(C)C)c(O)c1` [Example M194, (Z)-2-(3,6-dimethylhepta-2,5-dien-1-yl)-5-pentylbenzene-1,3-diol] has an MIC (Citrobacter freundii) of over 64 µg/mL, an MIC ([1]; type MRSE) of 1 µg/mL (≈ 3.31 µM) and an MIC ([1]; type MSSE) of 1 µg/mL (≈ 3.31 µM). The “in vitro activity (in words)” value (Acinetobacter baumannii) was “not active”, the MIC (Acinetobacter baumannii; type MDR) was over 64 µg/mL and the MIC (Acinetobacter baumannii; type —, read-out: MIC) was over 64 µg/mL. The MIC (Streptococcus mutans) was 32 µg/mL (≈ 106 µM), the MIC (Serratia marcescens) was over 64 µg/mL and the MIC (Escherichia coli; type ESBL) was over 64 µg/mL. For the same molecule, the MIC (Escherichia coli; type NDM-1) was over 64 µg/mL, the MIC (Escherichia coli; type QC, read-out: MIC) was over 64 µg/mL and the MIC (Haemophilus influenzae; ATCC49247, type QC (ATCC 49247 isolate)) was 4 µg/mL (≈ 13.2 µM). The “in vitro activity (in words)” value (Haemophilus influenzae; H. influenzae) was “had activity”, the MIC (Haemophilus influenzae; type BL+ (beta-lactamase positive isolate MMX 7988)) was 32 µg/mL (≈ 106 µM) and the MIC (Streptococcus oralis) was 32 µg/mL (≈ 106 µM). The MIC (Listeria monocytogenes) was 32 µg/mL (≈ 106 µM), the “in vitro activity (in words)” value [2] was “had activity” and the “in vitro activity (in words)” value (Pseudomonas aeruginosa; P. aeruginosa) was “not active”. The MIC (Pseudomonas aeruginosa; type MDR, VIM) was over 64 µg/mL, the MIC (Pseudomonas aeruginosa; type QC, read-out: MIC) was over 64 µg/mL and the “in vitro activity (in words)” value [3] was “to a lesser degree”. For the same molecule, the MIC (Streptococcus agalactiae; type MLS) was 16 µg/mL (≈ 52.9 µM), the MIC (Streptococcus agalactiae; type —, read-out: MIC) was 16 µg/mL (≈ 52.9 µM) and the MIC (Proteus mirabilis) was over 64 µg/mL. The MIC [4] was 2 µg/mL (≈ 6.61 µM), the MIC [5] was 16 µg/mL (≈ 52.9 µM) and the MIC (Enterobacter cloacae) was over 64 µg/mL. For the same molecule, the “in vitro activity (in words)” value (Enterobacterales) was “not active”, the “in vitro activity (in words)” value (Neisseria gonorrhoeae; N. gonorrhoeae) was “had activity” and the MIC (Neisseria gonorrhoeae; Neisseria gonorrhoeae, type QC) was 1 µg/mL (≈ 3.31 µM). It also gave an MIC (Streptococcus pyogenes; type ERYR) of 16 µg/mL (≈ 52.9 µM), an MIC (Streptococcus pyogenes; type —, read-out: MIC) of 16 µg/mL (≈ 52.9 µM) and an MIC (Staphylococcus aureus; MRSA, type MRSA, read-out: MIC) of 1 µg/mL (≈ 3.31 µM). For the same molecule, the MIC (Staphylococcus aureus; MSSA, type MSSA, QC, read-out: MIC) was 2 µg/mL (≈ 6.61 µM), the MIC (Staphylococcus aureus; MSSA, type MSSA, read-out: MIC) was 1 µg/mL (≈ 3.31 µM) and the MIC (Staphylococcus aureus; VISA, type VISA) was 2 µg/mL (≈ 6.61 µM). The “in vitro activity (in words)” value (Moraxella catarrhalis) was “had activity”, the MIC (Moraxella catarrhalis; type BL+) was 2 µg/mL (≈ 6.61 µM) and the MIC (Klebsiella pneumoniae; type QC, read-out: MIC) was over 64 µg/mL. It also gave an MIC (Klebsiella pneumoniae; type —) of over 64 µg/mL, an MIC (Enterococcus faecalis; type VSE, QC, read-out: MIC) of 2 µg/mL (≈ 6.61 µM) and an MIC (Enterococcus faecalis; type VSE, read-out: MIC) of 1 µg/mL (≈ 3.31 µM). It also gave an MIC (Enterococcus faecalis; type vanA) of 1 µg/mL (≈ 3.31 µM), an MIC (Enterococcus faecalis; type vanB) of 1 µg/mL (≈ 3.31 µM) and an MIC (Enterococcus faecium; type vanA) of 1 µg/mL (≈ 3.31 µM). For the same molecule, the MIC (Enterococcus faecium; type —, read-out: MIC) was 1 µg/mL (≈ 3.31 µM).
